Results published in patent US7989422B2, “Antibacterial agents” (Alchemia Limited, priority 2005, dated 2011).

Key:
Assay type in all cases: cell-based
[1] = test system: Enterococcus faecium ATCC 35667; test: MIC against E. faecium, microbroth dilution; details: MIC class
Description: (§1) Testing was conducted to determine the in vitro antimicrobial activity of a series of compounds synthesised by Alchemia Pty Ltd. The antimicrobial activity of each compound was determined at a single concentration (128 μg/mL) in Mueller Hinton (MH) broth against the ATCC type strain of Staphylococcus aureus. […] Compounds showing activity at concentrations up to 32-64 μg/mL in the presence/absence of serum were then tested for MIC activity against a standard set of 5 microorganisms comprising of ATCC type strains of MRSA, Enterococcus faecalis, Enterococcus faecium, VRE and Escherichia coli. CLSI (formerly NCCLS) microbroth dilution technique was used.
(§2) Each compound is initially dissolved in 100 μL of DMSO. Each solution is then diluted further in 0.9 mL of sterile MH broth to give a total volume of 1 mL (1000 μg/mL) This stock solution is then further diluted in MH broth to give a test solution with final concentration of 128 μg/mL using the following formula: 0.5 ml stock in 3.4 ml MH broth
(§3) Each test organism was subcultured from the −70° C. deep freezer onto horse blood agar. The plates were streaked to obtain isolated colonies and incubated at 35° C. in non-CO2 incubator for 24 hours. A second subculture was carried out onto horse blood agar. For each test organism, 1-2 colonies were selected from an 18-24 hour culture and inoculated into 2 ml sterile MH broth. The turbidity was adjusted to 0.5 McFarland standard.
(§4) A 1:10 dilution in MH broth (200 μL in 2 ml MH) of the 0.5 McFarland control was prepared. 5 μL of this diluted solution was used to inoculate the trays.
(§5) The trays were prepared in a similar way as mentioned above and incubated at 35° C. in a non-CO2 incubator for 18-24 hours. The plates were examined for growth after the incubation time.
(§6) After 18-24 hour incubation 5 μL from each well was then inoculated onto horse blood agar and incubated for 18-24 hours at 35° C. in a non-CO2 incubator.
(§7) If the test organism is sensitive to the compound in the broth the growth will be inhibited. Similarly, if the organism grows on the antibiotic containing medium then it is resistant to this particular antibiotic.

E. Faecium 51299 VanB = test: MIC against vancomycin-resistant enterococcus 51299 (VanB), microbroth dilution; details: MIC class; ATCC 51299 VanB
Description: as §1, §2, §3, §4, §5, §6, §7

[2] = test system: Enterococcus faecalis ATCC 29212; test: MIC against E. faecalis, microbroth dilution; details: MIC class
Description: as §1, §2, §3, §4, §5, §6, §7

[3] = test system: Staphylococcus aureus ATCC 25923; test: MIC against S. aureus, microbroth dilution in MH broth, without or with 5% horse serum; details: MIC class; S. aureus ATCC 25923
Description: as §1, §2, §3, §4
100 μL of sterile MH broth was added in columns 2-12. 200 μL of test solution was added in column 1. 100 μL was transferred in column 2 giving a ½ dilution. 100 μL from column 2 was then transferred to column 3 (¼ dilution). This dilution was carried on until column 12. A second tray containing the same test solution was inoculated in a similar manner using sterile MH broth with 5% heat inactivated horse serum. 5 μL of organism solution was then added to each well. The plates were then sealed and incubated at 35° C. in a non-CO2 incubator for 18-24 hours. The plates were examined for growth after the incubation time.
as §7

[4] = test system: Staphylococcus aureus (MRSA) ATCC 33591; test: MIC against MRSA, microbroth dilution; details: MIC class
Description: as §1, §2, §3, §4, §5, §6, §7

Row | Structure (SMILES) | S. Aureus 25923 activity [3] | also measured
1 | NC(C(=O)Nc1nc2cc(C(F)(F)F)ccc2n1C1C(CO)OCC(NS(=O)(=O)c2ccc(C(F)(F)F)cc2)C1O)c1ccc(-c2ccccc2)cc1 (stereo not drawn) [Compound 240] | ++ (“++”: MIC (μg/mL): MIC ≦ 16) | E. Faecium 35667 activity [1]: − (“−”: MIC (μg/mL): MIC > 64); E. Faecium 51299 VanB activity (E. Faecium 51299 VanB): − (“−”: MIC (μg/mL): MIC > 64); E. Fecalis 29212 activity [2]: ++ (“++”: MIC (μg/mL): MIC ≦ 16); S. Aureus 33591 MRSA activity [4]: ++ (“++”: MIC (μg/mL): MIC ≦ 16)
2 | Nc1cc(C(F)(F)F)cc(Cl)c1NC1COC(CO)C(NC(=O)C(N)Cc2ccc(-c3ccccc3)cc2)C1O (stereo not drawn) [Compound 202] | + (“+”: MIC (μg/mL): 64 ≧ MIC > 16) | E. Faecium 35667 activity [1]: + (“+”: MIC (μg/mL): 64 ≧ MIC > 16); E. Faecium 51299 VanB activity (E. Faecium 51299 VanB): − (“−”: MIC (μg/mL): MIC > 64); E. Fecalis 29212 activity [2]: − (“−”: MIC (μg/mL): MIC > 64); S. Aureus 33591 MRSA activity [4]: + (“+”: MIC (μg/mL): 64 ≧ MIC > 16)
3 | CCCCCCCCCCCCC(N)C(=O)NC1C(CO)OCC(Nc2ccc(C(F)(F)F)cc2[N+](=O)[O-])C1O (stereo not drawn) [Compound 197] | ++ (“++”: MIC (μg/mL): MIC ≦ 16) | E. Faecium 35667 activity [1]: + (“+”: MIC (μg/mL): 64 ≧ MIC > 16); E. Faecium 51299 VanB activity (E. Faecium 51299 VanB): + (“+”: MIC (μg/mL): 64 ≧ MIC > 16); E. Fecalis 29212 activity [2]: + (“+”: MIC (μg/mL): 64 ≧ MIC > 16); S. Aureus 33591 MRSA activity [4]: + (“+”: MIC (μg/mL): 64 ≧ MIC > 16)
4 | O=C(NC1C(CO)OCC(NS(=O)(=O)c2ccc(Cl)c(C(F)(F)F)c2)C1O)c1ccc(-c2ccc(Cl)cc2)cc1 (stereo not drawn) [Compound 12] | + (“+”: MIC (μg/mL): 64 ≧ MIC > 16) | 
5 | CCCCCC(C)CCC(=O)NC1C(CO)OCC(n2c(N)nc3cc(C(F)(F)F)cc(Cl)c32)C1O (stereo not drawn) [Compound 179] | + (“+”: MIC (μg/mL): 64 ≧ MIC > 16) | E. Faecium 35667 activity [1]: − (“−”: MIC (μg/mL): MIC > 64); E. Faecium 51299 VanB activity (E. Faecium 51299 VanB): − (“−”: MIC (μg/mL): MIC > 64); E. Fecalis 29212 activity [2]: − (“−”: MIC (μg/mL): MIC > 64); S. Aureus 33591 MRSA activity [4]: − (“−”: MIC (μg/mL): MIC > 64)
6 | O=C(Nc1ccc(Cl)c(C(F)(F)F)c1)NC1COC(CO)C(n2c(NCc3ccc4ccccc4c3)nc3cc(C(F)(F)F)cc(Cl)c32)C1O (stereo not drawn) [Compound 261] | ++ (“++”: MIC (μg/mL): MIC ≦ 16) | 
7 | Nc1ccccc1OC1C(NS(=O)(=O)c2ccc(C(F)(F)F)cc2)COC(CO)C1NC(=O)C(N)Cc1ccc(-c2ccccc2)cc1 (stereo not drawn) [Compound 79] | + (“+”: MIC (μg/mL): 64 ≧ MIC > 16) | E. Faecium 35667 activity [1]: − (“−”: MIC (μg/mL): MIC > 64); E. Faecium 51299 VanB activity (E. Faecium 51299 VanB): − (“−”: MIC (μg/mL): MIC > 64); E. Fecalis 29212 activity [2]: − (“−”: MIC (μg/mL): MIC > 64); S. Aureus 33591 MRSA activity [4]: + (“+”: MIC (μg/mL): 64 ≧ MIC > 16)
8 | O=S(=O)(NC1COC(CO)C(n2c(NCc3ccc(Cl)cc3)nc3cc(C(F)(F)F)ccc32)C1O)c1ccc(C(F)(F)F)cc1 (stereo not drawn) [Compound 266] | ++ (“++”: MIC (μg/mL): MIC ≦ 16) | 
9 | CC(C)(C)c1ccc(CNc2nc3cc(C(F)(F)F)cc(Cl)c3n2C2C(CO)OCC(NS(=O)(=O)c3ccc(C(F)(F)F)cc3)C2O)cc1 (stereo not drawn) [Compound 276] | + (“+”: MIC (μg/mL): 64 ≧ MIC > 16) | 
10 | O=S(=O)(NC1COC(CO)C(n2c(Nc3ccc(Cl)cc3)nc3cc(C(F)(F)F)ccc32)C1O)c1ccc(C(F)(F)F)cc1 (stereo not drawn) [Compound 262] | + (“+”: MIC (μg/mL): 64 ≧ MIC > 16) | 
11 | O=S(=O)(NC1COC(CO)C(n2c(Nc3ccc(C(F)(F)F)cc3)nc3cc(C(F)(F)F)ccc32)C1O)c1ccc(C(F)(F)F)cc1 (stereo not drawn) [Compound 263] | ++ (“++”: MIC (μg/mL): MIC ≦ 16) | 
12 | O=S(=O)(NC1COC(CO)C(n2c(NCc3ccccc3)nc3cc(C(F)(F)F)ccc32)C1O)c1ccc(C(F)(F)F)cc1 (stereo not drawn) [Compound 265] | + (“+”: MIC (μg/mL): 64 ≧ MIC > 16) | 
13 | O=S(=O)(NC1COC(CO)C(n2c(Nc3ccc(C(F)(F)F)cc3)nc3cc(C(F)(F)F)cc(Cl)c32)C1O)c1ccc(C(F)(F)F)cc1 (stereo not drawn) [Compound 272] | ++ (“++”: MIC (μg/mL): MIC ≦ 16) | 
14 | O=S(=O)(NC1COC(CO)C(n2c(NCc3ccc(-c4ccccc4)cc3)nc3cc(C(F)(F)F)cc(Cl)c32)C1O)c1ccc(C(F)(F)F)cc1 (stereo not drawn) [Compound 278] | ++ (“++”: MIC (μg/mL): MIC ≦ 16) | 
15 | O=S(=O)(NC1COC(CO)C(n2c(Nc3ccc(-c4ccccc4)cc3)nc3cc(C(F)(F)F)ccc32)C1O)c1ccc(C(F)(F)F)cc1 (stereo not drawn) [Compound 264] | ++ (“++”: MIC (μg/mL): MIC ≦ 16) | 
16 | O=S(=O)(NC1COC(CO)C(n2c(NCc3ccccc3)nc3cc(C(F)(F)F)cc(Cl)c32)C1O)c1ccc(C(F)(F)F)cc1 (stereo not drawn) [Compound 274] | ++ (“++”: MIC (μg/mL): MIC ≦ 16) | 
17 | O=C(Nc1ccc(Cl)c(C(F)(F)F)c1)NC1COC(CO)C(n2c(NCc3ccc(-c4ccccc4)cc3)nc3cc(C(F)(F)F)cc(Cl)c32)C1O (stereo not drawn) [Compound 259] | ++ (“++”: MIC (μg/mL): MIC ≦ 16) | 
18 | CC(C)(C)c1ccc(CNc2nc3cc(C(F)(F)F)ccc3n2C2C(CO)OCC(NS(=O)(=O)c3ccc(C(F)(F)F)cc3)C2O)cc1 (stereo not drawn) [Compound 267] | ++ (“++”: MIC (μg/mL): MIC ≦ 16) | 
19 | O=S(=O)(NC1COC(CO)C(n2c(NCc3ccc4ccccc4c3)nc3cc(C(F)(F)F)ccc32)C1O)c1ccc(C(F)(F)F)cc1 (stereo not drawn) [Compound 270] | ++ (“++”: MIC (μg/mL): MIC ≦ 16) | 
20 | O=S(=O)(NC1COC(CO)C(n2c(NCc3cccc(Oc4ccccc4)c3)nc3cc(C(F)(F)F)ccc32)C1O)c1ccc(C(F)(F)F)cc1 (stereo not drawn) [Compound 268] | ++ (“++”: MIC (μg/mL): MIC ≦ 16) | 
21 | O=S(=O)(NC1COC(CO)C(n2c(NCc3ccc4ccccc4c3)nc3cc(C(F)(F)F)cc(Cl)c32)C1O)c1ccc(C(F)(F)F)cc1 (stereo not drawn) [Compound 279] | ++ (“++”: MIC (μg/mL): MIC ≦ 16) | 
22 | O=S(=O)(NC1COC(CO)C(n2c(Nc3ccc(-c4ccccc4)cc3)nc3cc(C(F)(F)F)cc(Cl)c32)C1O)c1ccc(C(F)(F)F)cc1 (stereo not drawn) [Compound 273] | ++ (“++”: MIC (μg/mL): MIC ≦ 16) | 
23 | O=S(=O)(NC1COC(CO)C(n2c(NCc3ccc(Cl)cc3)nc3cc(C(F)(F)F)cc(Cl)c32)C1O)c1ccc(C(F)(F)F)cc1 (stereo not drawn) [Compound 275] | ++ (“++”: MIC (μg/mL): MIC ≦ 16) | 
24 | O=S(=O)(NC1COC(CO)C(n2c(NCc3ccc(-c4ccccc4)cc3)nc3cc(C(F)(F)F)ccc32)C1O)c1ccc(C(F)(F)F)cc1 (stereo not drawn) [Compound 269] | ++ (“++”: MIC (μg/mL): MIC ≦ 16) | 
25 | O=S(=O)(NC1COC(CO)C(n2c(Nc3ccc(Cl)cc3)nc3cc(C(F)(F)F)cc(Cl)c32)C1O)c1ccc(C(F)(F)F)cc1 (stereo not drawn) [Compound 271] | ++ (“++”: MIC (μg/mL): MIC ≦ 16) | 
26 | O=S(=O)(NC1COC(CO)C(n2c(NCc3cccc(Oc4ccccc4)c3)nc3cc(C(F)(F)F)cc(Cl)c32)C1O)c1ccc(C(F)(F)F)cc1 (stereo not drawn) [Compound 277] | + (“+”: MIC (μg/mL): 64 ≧ MIC > 16) | 
27 | Nc1ccccc1OC1C(NC(=O)Nc2ccc(Cl)c(C(F)(F)F)c2)COC(CO)C1NC(=O)CC(N)c1ccc(-c2ccccc2)cc1 (stereo not drawn) [Compound 72] | ++ (“++”: MIC (μg/mL): MIC ≦ 16) | 
28 | O=C(Nc1ccc(Cl)c(C(F)(F)F)c1)NC1COC(CO)C(n2c(NCc3cccc(Oc4ccccc4)c3)nc3cc(C(F)(F)F)cc(Cl)c32)C1O (stereo not drawn) [Compound 258] | ++ (“++”: MIC (μg/mL): MIC ≦ 16) | 
